Measurements published in publication PMC5079764 (Bioorganic & medicinal chemistry, 2016).

Tests used:
5-HT2B receptor [1] = molecular target: T1, 5-HT2B receptor (Homo sapiens, UniProt P41595); experiment: NIMH-PDSP receptor binding affinity, 5-HT2B; settings: Table 1; MTA = Missed 50% of threshold inhibition
D2 receptor [2] = molecular target: T2, D2 receptor (Homo sapiens, UniProt P14416); experiment: NIMH-PDSP receptor binding affinity, D2; settings: Table 1; MTA = Missed 50% of threshold inhibition
T2 sequence (P14416 whole entry): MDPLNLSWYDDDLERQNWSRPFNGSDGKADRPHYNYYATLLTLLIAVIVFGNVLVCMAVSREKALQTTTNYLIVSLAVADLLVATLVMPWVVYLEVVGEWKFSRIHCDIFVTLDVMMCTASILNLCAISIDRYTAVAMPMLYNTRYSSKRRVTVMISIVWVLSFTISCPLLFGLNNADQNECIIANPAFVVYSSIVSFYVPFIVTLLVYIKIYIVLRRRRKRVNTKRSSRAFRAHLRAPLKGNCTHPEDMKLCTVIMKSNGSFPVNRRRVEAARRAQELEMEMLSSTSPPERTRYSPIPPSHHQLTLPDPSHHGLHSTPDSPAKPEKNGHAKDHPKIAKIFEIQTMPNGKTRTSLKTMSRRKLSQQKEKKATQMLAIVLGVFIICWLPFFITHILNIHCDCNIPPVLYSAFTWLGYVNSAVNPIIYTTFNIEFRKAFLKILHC

D2 receptor [3] = molecular target: T2, D2 receptor; settings: Table 1; cited from earlier work
D4 receptor = molecular target: T3, D4 receptor (Homo sapiens, UniProt P21917); settings: Table 1; cited from earlier work
T3 sequence (P21917 1-419): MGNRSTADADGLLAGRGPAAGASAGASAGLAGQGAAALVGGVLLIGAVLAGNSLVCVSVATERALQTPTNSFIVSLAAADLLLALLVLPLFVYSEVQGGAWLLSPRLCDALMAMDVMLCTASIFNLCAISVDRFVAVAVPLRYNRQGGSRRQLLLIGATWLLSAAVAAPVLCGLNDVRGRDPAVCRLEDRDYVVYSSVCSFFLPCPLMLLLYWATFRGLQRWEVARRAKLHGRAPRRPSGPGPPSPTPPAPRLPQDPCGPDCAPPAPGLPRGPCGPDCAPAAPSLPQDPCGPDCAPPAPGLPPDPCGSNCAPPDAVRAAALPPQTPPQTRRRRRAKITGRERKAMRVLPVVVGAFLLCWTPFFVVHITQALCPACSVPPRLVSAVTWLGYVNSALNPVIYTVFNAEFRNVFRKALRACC

5-HT2C receptor = molecular target: T4, 5-HT2C receptor (Homo sapiens, UniProt P28335); settings: Table 1; cited from earlier work
T4 sequence (P28335 33-458): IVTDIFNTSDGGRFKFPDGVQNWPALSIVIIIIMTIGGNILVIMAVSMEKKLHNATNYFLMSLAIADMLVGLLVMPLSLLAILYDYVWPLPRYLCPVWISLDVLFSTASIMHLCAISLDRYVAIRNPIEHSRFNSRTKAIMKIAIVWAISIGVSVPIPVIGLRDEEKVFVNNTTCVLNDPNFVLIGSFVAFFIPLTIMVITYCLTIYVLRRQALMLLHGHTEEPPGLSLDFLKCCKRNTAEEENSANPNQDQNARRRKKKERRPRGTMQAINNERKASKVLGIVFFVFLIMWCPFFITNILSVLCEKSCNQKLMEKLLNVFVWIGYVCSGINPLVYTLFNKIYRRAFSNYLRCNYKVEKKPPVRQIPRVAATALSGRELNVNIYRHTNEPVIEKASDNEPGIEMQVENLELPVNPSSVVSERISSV

5-HT1A receptor = molecular target: T5, 5-HT1A receptor (Homo sapiens, UniProt P08908); settings: Table 1, cited from earlier work
T5 sequence (P08908 1-422): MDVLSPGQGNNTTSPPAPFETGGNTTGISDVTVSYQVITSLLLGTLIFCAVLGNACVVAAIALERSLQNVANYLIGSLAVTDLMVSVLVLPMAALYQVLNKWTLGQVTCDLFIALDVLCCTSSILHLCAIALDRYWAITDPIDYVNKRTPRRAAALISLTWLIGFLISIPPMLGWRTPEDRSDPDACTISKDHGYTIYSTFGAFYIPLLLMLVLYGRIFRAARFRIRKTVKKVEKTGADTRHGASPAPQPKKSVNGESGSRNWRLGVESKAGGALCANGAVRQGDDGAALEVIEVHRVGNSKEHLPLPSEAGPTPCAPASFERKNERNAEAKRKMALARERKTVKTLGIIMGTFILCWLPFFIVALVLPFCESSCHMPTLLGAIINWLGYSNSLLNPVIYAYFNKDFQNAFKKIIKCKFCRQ

5-HT2B receptor [4] = molecular target: T1, 5-HT2B receptor; settings: Table 1; cited from earlier work
H1 receptor = H1 receptor (Homo sapiens, UniProt P35367); settings: Table 1; cited from earlier work
H1 receptor, sequence (P35367 whole entry): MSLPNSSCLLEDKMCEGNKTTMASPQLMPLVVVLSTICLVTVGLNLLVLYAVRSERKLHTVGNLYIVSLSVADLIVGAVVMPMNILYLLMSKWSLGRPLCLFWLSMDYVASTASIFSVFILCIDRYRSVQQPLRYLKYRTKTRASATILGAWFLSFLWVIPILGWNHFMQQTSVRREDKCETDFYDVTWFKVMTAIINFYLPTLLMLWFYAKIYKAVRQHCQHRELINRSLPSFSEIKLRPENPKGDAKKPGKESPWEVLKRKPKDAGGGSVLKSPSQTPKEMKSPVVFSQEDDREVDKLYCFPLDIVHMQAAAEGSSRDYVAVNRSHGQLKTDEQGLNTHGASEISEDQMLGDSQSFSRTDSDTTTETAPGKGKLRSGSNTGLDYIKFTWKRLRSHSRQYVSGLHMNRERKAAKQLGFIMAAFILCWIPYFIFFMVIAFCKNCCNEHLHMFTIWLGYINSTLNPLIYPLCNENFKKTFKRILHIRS

5-HT2A receptor = 5-HT2A receptor (Homo sapiens, UniProt P28223); settings: Table 1; cited from earlier work
5-HT2A receptor, sequence (P28223 whole entry): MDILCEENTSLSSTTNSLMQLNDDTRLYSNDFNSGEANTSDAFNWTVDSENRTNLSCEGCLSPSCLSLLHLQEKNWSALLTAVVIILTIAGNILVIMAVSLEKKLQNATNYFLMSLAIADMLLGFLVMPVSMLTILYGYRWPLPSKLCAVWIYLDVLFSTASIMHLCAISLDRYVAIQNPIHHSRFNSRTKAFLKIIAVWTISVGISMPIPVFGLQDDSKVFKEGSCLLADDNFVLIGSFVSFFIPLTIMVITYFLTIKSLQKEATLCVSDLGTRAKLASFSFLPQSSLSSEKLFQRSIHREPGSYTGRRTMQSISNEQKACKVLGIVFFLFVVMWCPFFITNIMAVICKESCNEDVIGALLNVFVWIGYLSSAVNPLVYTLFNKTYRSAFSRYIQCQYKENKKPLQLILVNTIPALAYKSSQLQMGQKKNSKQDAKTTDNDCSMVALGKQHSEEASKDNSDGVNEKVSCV

5-HT7 receptor = 5-HT7 receptor (Homo sapiens, UniProt P34969); settings: Table 1; cited from earlier work
5-HT7 receptor, sequence (P34969 whole entry): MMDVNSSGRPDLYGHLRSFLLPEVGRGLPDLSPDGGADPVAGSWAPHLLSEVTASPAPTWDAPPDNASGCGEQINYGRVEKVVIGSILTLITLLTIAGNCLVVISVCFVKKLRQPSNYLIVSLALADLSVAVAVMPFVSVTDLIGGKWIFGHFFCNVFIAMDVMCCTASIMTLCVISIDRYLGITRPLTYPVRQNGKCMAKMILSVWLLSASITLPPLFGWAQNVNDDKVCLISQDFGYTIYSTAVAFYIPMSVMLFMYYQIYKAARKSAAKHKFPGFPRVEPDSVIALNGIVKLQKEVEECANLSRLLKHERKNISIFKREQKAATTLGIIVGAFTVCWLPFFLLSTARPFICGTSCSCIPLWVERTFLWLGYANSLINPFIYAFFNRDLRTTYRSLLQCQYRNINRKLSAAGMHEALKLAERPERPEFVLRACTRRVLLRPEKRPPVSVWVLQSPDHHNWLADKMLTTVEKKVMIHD

T1 sequence (P41595 whole entry): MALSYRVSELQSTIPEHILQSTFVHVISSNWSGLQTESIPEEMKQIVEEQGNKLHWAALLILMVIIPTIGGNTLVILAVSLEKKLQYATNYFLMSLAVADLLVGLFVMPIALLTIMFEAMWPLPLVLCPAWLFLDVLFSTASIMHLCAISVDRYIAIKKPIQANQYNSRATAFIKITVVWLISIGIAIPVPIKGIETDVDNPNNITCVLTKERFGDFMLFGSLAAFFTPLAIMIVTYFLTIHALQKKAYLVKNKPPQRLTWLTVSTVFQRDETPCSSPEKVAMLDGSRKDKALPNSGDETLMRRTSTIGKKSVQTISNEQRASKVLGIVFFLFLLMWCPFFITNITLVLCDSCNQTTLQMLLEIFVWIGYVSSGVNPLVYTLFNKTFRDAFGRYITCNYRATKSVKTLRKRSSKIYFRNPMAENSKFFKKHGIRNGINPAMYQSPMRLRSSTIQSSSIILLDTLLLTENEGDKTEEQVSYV

Cl.Cl.c1ccc2c(c1)CCN(CCCc1nc3ccccc3[nH]1)C2 [Compound 1d, 2-(3-(1H-benzo[d]imidazol-2-yl)propyl)-1,2,3,4-tetrahydroisoquinoline]
Ki (nM) 5-HT2B (5-HT2B receptor [1]): MTA

Br.c1ccc2c(c1)CCN(CCCc1nc3ccccc3s1)C2 [Compound 1b, 2-(3-(3,4-Dihydroisoquinolin-2(1H)-yl)propyl)benzo[d]thiazole hydrobromide]
Ki (nM) D2 (D2 receptor [2]): MTA

c1ccc2c(c1)CCN(CCCCc1nc3ccccc3s1)C2 [Compound 1a, 2-(4-(3,4-Dihydroisoquinolin-2(1H)-yl)butyl)benzo[d]thiazole]
pKi±SEM D2 (D2 receptor [3]): 6.78±0.09
pKi±SEM D4 (D4 receptor): 7.17±0.05
pKi±SEM 5-HT2C (5-HT2C receptor): 6.04±0.04
pKi±SEM 5-HT1A (5-HT1A receptor): 8±0.03
Ki (5-HT1A receptor; read-out: Ki (nM) 5-HT1A, MTA = Missed 50% of threshold inhibition): 10 nM
pKi±SEM 5-HT2B (5-HT2B receptor [4]): 7.74±0.05
pKi±SEM H1 (H1 receptor): 6.23±0.08
pKi±SEM 5-HT2A (5-HT2A receptor): 5.77±0.06
pKi±SEM 5-HT7 (5-HT7 receptor): 7.66±0.06
